For three compounds, inhibition results are on record in ChEMBL document CHEMBL1777765, “Synthesis of 5-thiodidehydropyranylcytosine derivatives as potential anti-HIV agents” (2011).

Assay [1] deals with Human immunodeficiency virus 1. Nature of the assay: Antiviral activity against HIV1 infected in human PBMC assessed as inhibition of viral replication at 10 nM by p24 HIV antigen capture assay relative to control. The class given is functional.
Assay [2] relates to Human immunodeficiency virus 1. Nature of the assay: Antiviral activity against HIV1 infected in human PBMC assessed as inhibition of viral replication at 100 nM by p24 HIV antigen capture assay relative to control. The class given is functional.
The test system of assay [3] is Human immunodeficiency virus 1. Briefly: Antiviral activity against HIV1 infected in human PBMC assessed as inhibition of viral replication at 1 to 1000 nM by p24 HIV antigen capture assay. The class given is functional, organism-based.

Activity calls are given as the source filed them. No cut-off for these calls is given here.

By inhibition is commonly meant the percentage by which the read-out fell short of the control.

With `Nc1ccn([C@@H]2CS[C@H](CO)O2)c(=O)n1` [LAMIVUDINE], the inhibition at 0.01 µM in assay [1] came out at 37%.
With `Nc1ccn([C@@H]2C=C[C@@H](CO)[C@H](CO)S2)c(=O)n1` (racemic), in assay [2], the inhibition at 0.1 µM was 75%. In addition, the inhibition at 0.01 µM in assay [1] was 65%.
For `Nc1ccn([C@H]2C=C[C@@H](CO)[C@H](CO)S2)c(=O)n1`, the inhibition entry in assay [3] is “Active”.
